The target in assay [1] is T1, Protein farnesyltransferase (Homo sapiens, UniProt P49354+P49356). Briefly: Percent inhibition of Ha-Ras protein processing in THAC (Ha-ras-transformed CCL39) cells at 10 uM. In kind it is functional.
For assay [2], the target named is T1, Protein farnesyltransferase. Briefly: Ratio of FTase IC50 values compared to compound 5. The format is protein-complex assay.
Assay [3] shares this target. Briefly: Inhibition of [3H]FPP incorporation into human Ki-Ras by farnesyltransferase. The format is protein-complex assay.
Assay [4] shares this target. Briefly: Inhibition of [3H]FPP incorporation into human Ha-Ras by farnesyltransferase. The format is protein-complex assay.
Assay [5] has the same target. As to the kind of experiment: Ratio of FTase IC50 values compared to compound 8. The format is protein-complex assay.

SMILES strings stand for the structures. Square brackets hold non-standard residues; d marks the D form. Peptide text beside a SMILES is read from it. Tic = O=C(O)[C@@H]1Cc2ccccc2CN1; NMeM = CN[C@@H](CCSC)C(=O)O; NMeV = CN[C@H](C(=O)O)C(C)C; Nle = CCCC[C@H](N)C(=O)O

For orientation: inhibition means the percentage by which the read-out fell short of the control. The low end stands for little suppression, the high end for strong suppression. By IC50 is commonly meant the concentration needed to halve the response being measured. The low end stands for greater potency, the high end for weaker potency.

For `CSCC[C@H](NC(=O)c1cccc2c(NC[C@@H](N)CS)cccc12)C(=O)O`, the inhibition in assay [1] was 0%. In addition, the Ratio in assay [2] is 1.
In turn, `CSCC[C@H](NC(=O)c1cccc2c(NC(=O)[C@@H](N)CS)cccc12)C(=O)O` registered an inhibition in assay [1] of 0%.
Take `CSCC[C@H](NC(=O)c1cccc2cc(NC(=O)[C@@H](N)CS)ccc12)C(=O)O`: the half-inhibitory concentration (IC50) in assay [3] was 1250 nM; in assay [4], 60 nM.
With `CSCC[C@H](NCc1cccc2c(NC[C@@H](N)CS)cccc12)C(=O)O`, in assay [2], the Ratio was 54.
As for `COC(=O)[C@H](CCSC)NC(=O)c1cccc2c(NC[C@@H](N)CS)cccc12`, in assay [1], the inhibition came to 20%. Also, the Ratio in assay [2] was found to be 58. Further, the midpoint of inhibition in assay [4], the IC50, lay at 325 nM.
The compound `COC(=O)[C@H](CCSC)NC(=O)c1cccc2cc(NC[C@@H](N)CS)ccc12` came in with a half-maximal inhibitory concentration (IC50) in assay [3] of 500 nM. This compound displayed an inhibition in assay [1] greater than 50%.
Compound `CSCC[C@H](NC(=O)c1cccc2cc(NC[C@@H](N)CS)ccc12)C(=O)O` yielded a 50% inhibitory concentration (IC50) in assay [3] of 17.5 nM. Moreover, in assay [1], the inhibition was 10%.
`CSCC[C@H](NC(=S)[C@H](Cc1ccccc1)NC(=O)[C@@H](NC(=O)[C@@H](N)CS)C(C)C)C(=O)O` registered a half-maximal inhibitory concentration (IC50) in assay [4] of 17 nM.
Take `CSCC[C@H](/N=C(\S)[C@H](Cc1ccccc1)NC(=O)[C@@H](NC(=O)[C@@H](N)CS)C(C)C)C(=O)O`: the Ratio in assay [5] came to 0.5.
As for `CSCC[C@H](/N=C(\S)c1cccc2c(NC[C@@H](N)CS)cccc12)C(=O)O`, in assay [2], the Ratio was 0.9.
In turn, `CSCC[C@H](NC(=S)c1cccc2c(NC[C@@H](N)CS)cccc12)C(=O)O` yielded a concentration for half-maximal inhibition (IC50) in assay [4] of 4.8 nM. This counts as single-digit nanomolar.
Take `CSCC[C@H](NC[C@H](Cc1ccccc1)NC(=O)[C@@H](NC(=O)[C@@H](N)CS)C(C)C)C(=O)O`: the Ratio in assay [5] is 60.
For the compound `COC(=O)[C@H](CCSC)NC(=O)[C@H](Cc1ccccc1)NC(=O)[C@@H](NC(=O)[C@@H](N)CS)C(C)C` (H-CVFM-OMe), the Ratio in assay [5] is 92. In assay [4], this compound yielded an IC50 of 3400 nM.
With `CSCC[C@H](NC(=O)[C@@H]1Cc2ccccc2CN1C(=O)[C@H](C(C)C)N(C)C(=O)[C@@H](N)CS)C(=O)O` (H-C[NMeV][Tic]M-OH), the inhibition in assay [1] was 0%.
Regarding `CCCC[C@H](NC(=O)c1cccc2c(NC[C@@H](N)CS)cccc12)C(=O)O`, the Ratio in assay [2] worked out at 8. Moreover, 44 nM corresponded to half-maximal inhibition in assay [4] (IC50).
`CSCC[C@@H](C(=O)O)N(C)C(=O)[C@H](Cc1ccccc1)NC(=O)[C@@H](NC(=O)[C@@H](N)CS)C(C)C` (H-CVF[NMeM]-OH): the Ratio in assay [5] was 38. The concentration for half-maximal inhibition (IC50) in assay [4] came to 1400 nM.
As for `CCCC[C@H](NC(=O)[C@H](Cc1ccccc1)NC(=O)[C@@H](NC(=O)[C@@H](N)CS)C(C)C)C(=O)O` (H-CVF[Nle]-OH), in assay [5], the Ratio was found to be 26. Also, half-maximal inhibition in assay [4] (IC50) was put at 950 nM.
Consider `CSCC[C@@H](C(=O)O)N(C)C(=O)c1cccc2c(NC[C@@H](N)CS)cccc12`, for which the Ratio in assay [2] was 37.5. In assay [4], this compound had a 50% inhibitory concentration (IC50) of 210 nM.

(Values after ChEMBL document CHEMBL1130050, “Novel conformationally extended naphthalene-based inhibitors of farnesyltransferase” (J Med Chem, 1997).)
